Laboratory results taken from PMC6368365, “Didehydro-Cortistatin A Inhibits HIV-1 by Specifically Binding to the Unstructured Basic Region of Tat” (mBio, 2019).

How the values were obtained:
[1] = biological target: T1, Pep B-TAR interaction (Human immunodeficiency virus type 1 group M subtype B, UniProt P20879); test: EMSA of Tat's basic peptide (Pep B) with TAR; format: biochemical, HIV-1; conditions: Tat basic peptide residues 45 to 59
T1 construct: Pep B is a peptide encompassing the basic domain of HIV Tat (^45ISYGRKKRRQRRRAP^59)
From the text: FIG 6 dCA binding to Tat disrupts Tat-TAR interaction. (A) EMSA of full-length Tat with TAR in the presence of dCA. Raltegravir (Ralt.) and deleted bulge TAR (ΔTAR) were used as negative controls. Data are representative of n = 3 independent experiments. (B) EMSA of Tat’s basic domain with TAR in the presence of increasing concentrations of dCA to Tat’s basic peptide. Pep B is a peptide encompassing the basic domain of HIV Tat (^45ISYGRKKRRQRRRAP^59). Pep C (^69LSKQPASQPRGDPTG^83) and unlabeled or cold TAR (TARc) were used as negative controls. Neomycin, which binds to Tat and TAR, was used as a positive control. Ratios of compounds (or TARc) concentrations to peptide are shown. Data are representative of n = 3 independent experiments. […] Shown are ITC results from binding of dCA (left) or Tat peptide (right) to TAR at 25°C. […] For the lower plots, results were converted to molar heats and plotted against the molar ratio of dCA or peptide to RNA. Data are representative of n = 2 independent experiments. (D) Tat-TAR interaction blocked by dCA in HeLa-CD4-LTR-Luc cells in vivo. Cells transfected with Tat or Tat Mut (arginine residues mutated to alanine in Tat’s basic domain) were incubated with DMSO or the indicated compounds (25 nM). Forty-eight hours later, cells were either lysed to determine the luciferase activity or cross-linked for ChIP assays. Luciferase activity was determined relative to protein concentration (Bradford assay) (Fig. S9A). Western blotting was performed to verify the amount of Tat under each condition (Fig. S9B). ChIP of Tat was followed by qRT-PCR of TAR DNA. The results are presented as percentage of input. The mean ± SEM is represented. Data are representative of n = 3 independent experiments. Statistical significance was determined using one-way ANOVA with post hoc Tukey’s test with 3 technical replicates. ns, not significant; ***, P < 0.0001.
We also performed the same experiment with a peptide encompassing the basic domain of Tat (Pep B; residues 45 to 59) and dCA.
EMSA With full-length Tat: similar protocol was performed as in Das et al. (60). […]

[2] = biological target: Tat-TAR interaction (Human immunodeficiency virus type 1 group M subtype B, UniProt P69697); test: EMSA of full-length Tat with TAR; format: biochemical, HIV-1; parameters: pTatC6H-1 (NIH AIDS Reagent Program) plasmid encoding C-terminal 6xHistidine Tat1-86 (HXB3, subtype B); made in house; host or cells: E. coli BL21 (plasmid pTatC6H-1, NIH AIDS Reagent Program); conditions: radiolabeled TAR
From the text: Tat amplifies viral mRNA expression by binding through its basic domain to TAR, the 5′-terminal region stem-bulge-loop structure of HIV mRNAs, and recruits several cofactors to the viral promoter to promote transcriptional elongation. We investigated whether dCA could compete with TAR for Tat binding. For this purpose, we performed EMSA with radiolabeled TAR and recombinant Tat in the presence or absence of dCA (Fig. 6A).
EMSA with full-length Tat, a protocol similar to that of Das et al. was performed ([60]). Details on the EMSA with Tat’s basic peptide are provided in Text S1.
EMSA With full-length Tat: similar protocol was performed as in Das et al. (60). With Tat’s basic peptide: the 59-nucleotides TAR RNA was prepared by in vitro T7 RNA polymerase transcription according to Maxiscript kit manufacturer’s instructions (Ambion). The radiolabeled RNA was purified by urea gel followed by phenol-chloroform extraction. Binding reaction mixture (25 µL of 10 mM Tris HCL pH 7.5, NaCl 70 mM, EDTA 0.2 mM, NP40 0.01 %, Glycerol 5 % and tRNA 100 ng/µL) contained traces of radiolabeled TAR RNA and basic peptide (Pep B, residues 45-59) (or peptide C “Pep C”, residues 69-83, as negative control) in combination or not with compounds or cold TAR. The mixture was incubated for 10 min at room temperature (RT). […]

Tat-TAR interaction, sequence (P69697 whole entry, the tested form may be a part): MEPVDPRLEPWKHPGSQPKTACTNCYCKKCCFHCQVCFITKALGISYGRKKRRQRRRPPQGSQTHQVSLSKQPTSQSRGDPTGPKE

SMILES | inhibition of Pep B-TAR interaction (EMSA) [1] | inhibition of Tat-TAR interaction (EMSA) [2]
CN(C)C1CC23CCC4(O2)C(=CCC2(C)C(c5ccc6ccncc6c5)=CCC24)C=C3C(O)C1O (stereo not shown) [dCA, didehydro-cortistatin A] | inhibited the interaction of Pep B with TAR in a dose-dependent manner | inhibited the interaction of Tat with TAR in a dose-responsive manner
Cc1nnc(C(=O)NC(C)(C)c2nc(C(=O)NCc3ccc(F)cc3)c(O)c(=O)n2C)o1 [raltegravir, reference compound] | did not compete | no inhibitory activity
